Test results reported in article PMC2644789, “Dissection of Kinesin's Processivity” (PLoS ONE, 2009).
Each block holds one molecule with its values, some of them ahead of it.

Experiments:
Type in all cases: biochemical, Neurospora crassa
Head3/Neck1 [1] = tested on: T1, Head3/Neck1; assay: coupled enzymatic steady-state ATPase assay; details: microtubule-activated (pig brain tubulin), 12.5 mM Aces-KOH, 25 mM potassium acetate, 5 mM MgCl2, EGTA, pH 6.8, 22°C; read-out: Steady state ATPase / KM,ATP
T1 construct: gene NcKin3; fusion in one polypeptide: NcKin3 residues 1-429 (motor and neck-linker) replacing the head of NcKin436 (NcKin head elsewhere 1-342); C-terminal PSIVHRKCF (cys) or hTail; dimer; with Kinesin heavy chain
Source text: coupled enzymatic steady-state ATPase assay on Head3/Neck1

Head1/Neck3 = tested on: T2, Head1/Neck3; assay: coupled enzymatic steady-state ATPase assay; details: microtubule-activated (pig brain tubulin), 12.5 mM Aces-KOH, 25 mM potassium acetate, 5 mM MgCl2, EGTA, pH 6.8, 22°C; read-out: Steady state ATPase / KM,ATP
T2 construct: gene NcKin; fusion in one polypeptide: NcKin residues 1-342 (motor and neck-linker) replacing the N-terminal 427 residues of NcKin3_558; C-terminal PSIVHRKCF (cys) or hTail; dimer; with Kinesin-3 motor protein NcKin3
Source text: coupled enzymatic steady-state ATPase assay on Head1/Neck3

Head3/Neck1 [2] = tested on: T1, Head3/Neck1; assay: stopped-flow light scattering, ATP-induced microtubule detachment; details: dissociation of preformed apyrase-treated kinesin-microtubule complex, 0.4 µM complex, 0-1000 µM ATP; read-out: Detachment / K0.5,ATP
Source text: stopped-flow light scattering, ATP-induced microtubule detachment on Head3/Neck1

[3] = substrate: Nc1ncnc2c1ncn2[C@@H]1O[C@H](COP(=O)(O)OP(=O)(O)OP(=O)(O)O)[C@@H](O)[C@H]1O; assay: coupled enzymatic steady-state ATPase assay; details: microtubule-activated (pig brain tubulin), 12.5 mM Aces-KOH, 25 mM potassium acetate, 5 mM MgCl2, EGTA, pH 6.8, 22°C
Source text: coupled enzymatic steady-state ATPase assay on NcKin (NcKin436; wildtype reference)

Km (Head3/Neck1 [1]): 49.1 ± 1.3 µM | Km (Head1/Neck3): 33.1 ± 4.6 µM | Km (Head3/Neck1 [2]): 105 ± 26.6 µM
Molecule: Nc1ncnc2c1ncn2[C@@H]1O[C@H](COP(=O)(O)OP(=O)(O)OP(=O)(O)O)[C@@H](O)[C@H]1O [ATP]

B1: NcKin (NcKin436; wildtype reference) (Neurospora crassa OR74A) (protein)
chain: MSSSANSIKVVARFRPQNRVEIESGGQPIVTFQGPDTCTVDSKEAQGSFTFDRVFDMSCKQSDIFDFSIKPTVDDILNGYNGTVFAYGQTGAGKSYTMMGTSIDDPDGRGVIPRIVEQIFTSILSSAANIEYTVRVSYMEIYMERIRDLLAPQNDNLPVHEEKNRGVYVKGLLEIYVSSVQEVYEVMRRGGNARAVAATNMNQESSRSHSIFVITITQKNVETGSAKSGQLFLVDLAGSEKVGKTGASGQTLEEAKKINKSLSALGMVINALTDGKSSHVPYRDSKLTRILQESLGGNSRTTLIINCSPSSYNDAETLSTLRFGMRAKSIKNKAKVNAELSPAELKQMLAKAKTQITSFENYIVNLESEVQVWRGGETVPKEKWVPPLELAITPSKSASTTARPSTPSRLLPESRAETPAISDRAGTPSLPLDKDE
notes: C-terminally truncated NcKin436 (motor, neck-linker, neck coiled coil, partial stalk), expressed from pT7 vector; C-terminal reactive-cysteine peptide … or hTail; dimer
Km [3]: 64.5 ± 20.4 µM | kcat [3]: 66.9 ± 18.1 s⁻¹
